Source: ChEMBL document CHEMBL2440061, “Synthesis and pharmacological evaluation of carboxycoumarins as a new antitumor treatment targeting lactate transport in cancer cells” (Bioorg Med Chem, 2013)
Values after ≈ are worked out from the molar mass of the structure shown. Active and inactive are the calls of the source. No cut-off for these calls is given here.

How the values were obtained:
SiHa [1] = assay: Cytotoxicity against human SiHa cells in lactate-containing medium after 72 hrs by MTT assay; assay type: functional, cell-based
[2] = target: T1, Monocarboxylate transporter 4 (Homo sapiens) (UniProt O15427); assay: Ratio of alpha-cyano-4-hydroxycinnamate IC50 to compound IC50 for MCT4-mediated [14C]-lactate uptake in human SiHa cells in lactate-containing medium assessed as remaining lactate concentration in culture medium after 24 hrs by liquid scintillation counting; assay type: cell-based
T1 sequence (whole entry): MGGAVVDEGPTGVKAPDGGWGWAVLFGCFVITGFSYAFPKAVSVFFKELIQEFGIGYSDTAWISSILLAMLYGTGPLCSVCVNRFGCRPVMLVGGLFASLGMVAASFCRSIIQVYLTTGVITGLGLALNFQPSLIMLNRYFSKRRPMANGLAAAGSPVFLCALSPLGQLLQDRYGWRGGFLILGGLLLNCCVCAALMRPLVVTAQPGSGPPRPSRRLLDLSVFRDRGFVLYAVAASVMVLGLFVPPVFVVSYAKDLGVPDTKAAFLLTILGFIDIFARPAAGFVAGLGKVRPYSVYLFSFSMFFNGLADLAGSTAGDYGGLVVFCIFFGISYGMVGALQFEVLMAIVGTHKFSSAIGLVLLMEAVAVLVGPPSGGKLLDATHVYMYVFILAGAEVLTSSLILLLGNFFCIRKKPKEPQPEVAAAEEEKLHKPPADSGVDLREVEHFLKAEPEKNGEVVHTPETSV

SiHa [3] = assay: Cytotoxicity against human SiHa cells in glucose-containing medium after 72 hrs by MTT assay; assay type: functional, cell-based
[4] = target: T2, Monocarboxylate transporter 4 (Homo sapiens, UniProt O15427); assay: Inhibition of MCT4-mediated [14C]-lactate uptake in human SiHa cells in lactate-containing medium assessed as remaining lactate concentration in culture medium after 24 hrs by liquid scintillation counting; assay type: cell-based
T2 sequence (O15427 whole entry): T1 sequence (whole entry)

[5] = target: T2, Monocarboxylate transporter 4; settings: siha
Description: Inhibition of MCT4-mediated [14C]-lactate uptake in human SiHa cells in lactate-containing medium assessed as remaining lactate concentration in culture medium after 12 mins by liquid scintillation counting

[6] = Metabolic stability in human plasma assessed as compound remaining after 1 hr; assay type: ADME, cell-free; settings: read-out: Stability
[7] = Aqueous solubility of the compound in PBS buffer at pH 7.4; assay type: physicochemical
[8] = Chemical stability of the compound in simulated intestinal fluid assessed as compound remaining after 4 hrs; assay type: physicochemical; settings: read-out: Stability
Mus musculus [9] = assay: Toxicity in C57Bl6/J mouse assessed as induction of anticoagulant at 3 mg/kg, ip by prothrombin time test; assay type: organism-based; parameters: dose 3 mg/kg, route intraperitoneal; settings: in vivo
[10] = AUC (infinity) in mouse at 3 mg/kg, ip; assay type: ADME, organism-based; parameters: time infinity, dose 3 mg/kg, route intraperitoneal; settings: plasma
[11] = Half life in human liver microsomes; assay type: ADME, Microsome
[12] = Cmax in mouse at 3 mg/kg, ip; assay type: ADME, organism-based; parameters: dose 3 mg/kg, route intraperitoneal; settings: in vivo
[13] = Metabolic stability in mouse plasma assessed as compound remaining after 1 hr; assay type: ADME, cell-free; settings: read-out: Stability
[14] = Half life in mouse at 3 mg/kg, ip; assay type: ADME, organism-based; parameters: dose 3 mg/kg, route intraperitoneal; settings: in vivo
SiHa [15] = assay: Cytotoxicity against human SiHa cells in glucose-containing medium at 10 uM under hypoxia condition after 72 hrs by MTT assay; assay type: functional, cell-based
[16] = Tmax in mouse at 3 mg/kg, ip; assay type: ADME, organism-based; parameters: dose 3 mg/kg, route intraperitoneal; settings: in vivo
[17] = Half life in human hepatocytes; assay type: ADME, cell-based, Hepatocyte
[18] = Half life in mouse liver microsomes; assay type: ADME, Microsome
SiHa [19] = assay: Induction of apoptosis in human SiHa cells in lactate-containing medium assessed as caspase-3 cleavage at 10 uM after 48 hrs by Western blot analysis; assay type: functional, cell-based
Mus musculus [20] = assay: Toxicity in C57Bl6/J mouse assessed as mortality at 3 mg/kg, ip; assay type: organism-based; parameters: dose 3 mg/kg, route intraperitoneal; settings: in vivo
SiHa [21] = assay: Cytotoxicity against human SiHa cells in glucose-containing medium at 10 uM under normoxia condition after 72 hrs by MTT assay; assay type: functional, cell-based
SiHa [22] = assay: Cytotoxicity against human SiHa cells in glucose-containing medium after 72 hrs by MTT assay absence of pyruvate; assay type: functional, cell-based
[23] = Chemical stability of the compound in simulated gastric fluid assessed as compound remaining after 1 hr; assay type: physicochemical; settings: read-out: Stability
SiHa [24] = assay: Cytotoxicity against human SiHa cells in glucose-containing medium after 72 hrs by MTT assay presence of pyruvate; assay type: functional, cell-based
Mus musculus [25] = assay: Toxicity in C57Bl6/J mouse assessed as mortality at 1.5 mg/kg, ip; assay type: organism-based; parameters: dose 1.5 mg/kg, route intraperitoneal; settings: in vivo
Mus musculus [26] = assay: Toxicity in C57Bl6/J mouse assessed as induction of hemorrhage at 1.5 mg/kg, ip; assay type: organism-based; parameters: dose 1.5 mg/kg, route intraperitoneal; settings: in vivo

For O=C(O)c1cc2cc3c4c(c2oc1=O)CCCN4CCC3, the EC50 (SiHa [1]) was 1.2 µM, the Ratio IC50 [2] was 50 and the Activity (SiHa [3]) was “inactive”. It also gave an IC50 [4] of 0.73 µM.
For O=C(O)c1cc2ccc(OC3Cc4ccccc4C3)cc2oc1=O, the Activity (SiHa [1]) was “inactive”.
With COc1ccc2c(C)c(C(=O)O)c(=O)oc2c1 the EC50 (SiHa [1]) was > 30 µM, the Activity (SiHa [3]) was “inactive” and the IC50 [4] was > 30 µM.
For O=C(O)c1cc2ccc(N3CCOCC3)cc2oc1=O, the EC50 (SiHa [1]) was 17.5 µM, the Activity (SiHa [3]) was “inactive” and the IC50 [4] was 7.9 µM.
In the case of Cn1c(=O)c(C(=O)O)cc2ccc(OCc3ccccc3)cc21, the EC50 (SiHa [1]) is reported as > 30 µM, the Activity (SiHa [3]) is reported as “inactive” and the IC50 [4] is reported as > 30 µM.
With O=C(O)c1cc2ccc(OCc3ccc(F)cc3)cc2oc1=O the EC50 (SiHa [1]) was 3.9 µM, the Activity (SiHa [3]) was “inactive” and the IC50 [4] was 1.25 µM.
For O=C(O)c1cc2ccc(OCc3cc(C(F)(F)F)cc(C(F)(F)F)c3)cc2oc1=O, the Activity (SiHa [1]) was “inactive”.
In the case of O=C(O)c1cc2ccc(OCc3ccccc3)cc2[nH]c1=O, the EC50 (SiHa [1]) is reported as > 30 µM, the Activity (SiHa [3]) is reported as “inactive” and the IC50 [4] is reported as > 30 µM.
For CC(C)=CCC/C(C)=C/COc1ccc2cc(C(=O)O)c(=O)oc2c1, the Activity (SiHa [1]) was “inactive”.
In the case of O=C(O)c1cc2ccc(OCc3ccccc3)cc2oc1=O, the EC50 (SiHa [1]) is reported as 9.1 µM, the Activity (SiHa [3]) is reported as “inactive” and the IC50 [4] is reported as 1.9 µM.
In the case of CN(C)c1ccc2cc(C(=O)O)c(=O)oc2c1, the EC50 (SiHa [1]) is reported as 2.9 µM, the Activity (SiHa [3]) is reported as “inactive” and the IC50 [4] is reported as 1.4 µM.
With COc1ccc2cc(C(=O)O)c(=O)oc2c1 the EC50 (SiHa [1]) was 9.8 µM, the Activity (SiHa [3]) was “inactive” and the IC50 [4] was 2.3 µM.
In the case of O=C(O)c1cc2ccc(OCCc3ccccc3)cc2oc1=O, the EC50 (SiHa [1]) is reported as 5.6 µM, the Activity (SiHa [3]) is reported as “inactive” and the IC50 [4] is reported as 2.4 µM.
With N#C/C(=C\c1ccc(O)cc1)C(=O)O [alpha-CYANO-4-HYDROXYCINNAMIC ACID] the IC50 [5] was 10.7 µM, the EC50 (SiHa [1]) was 10.7 µM and the Activity (SiHa [3]) was “inactive”. For the same molecule, the IC50 [4] was 43.5 µM.
For O=C(O)c1cc2ccc(N3CCCC3)cc2oc1=O, the EC50 (SiHa [1]) was 14.3 µM, the Activity (SiHa [3]) was “inactive” and the IC50 [4] was > 30 µM.
CN(Cc1ccccc1)c1ccc2cc(C(=O)O)c(=O)oc2c1 gave a remaining at 1 h [6] of 44%, a solubility [7] of 58 µM (≈ 17.9 µg/mL) and an IC50 [5] of 0.01 µM. For the same molecule, the remaining at 4 h [8] was 91%, the EC50 (SiHa [1]) was 0.22 µM and the Activity (Mus musculus [9]) was “Non-toxic”. For the same molecule, the AUC(0-inf) [10] was 935 ng·h/mL, the half-life [11] was > 1 h and the Cmax [12] was 1250 ng/mL. The remaining at 1 h [13] was 103%, the half-life [14] was 4.5 h and the Ratio IC50 [2] was 3. For the same molecule, the Activity (SiHa [15]) was “inactive”, the Tmax [16] was 0.167 h and the half-life [17] was > 2 h. For the same molecule, the half-life [18] was > 1 h, the Activity (SiHa [3]) was “inactive” and the Activity (SiHa [19]) was “Active”. For the same molecule, the Activity (Mus musculus [20]) was “Non-toxic”, the Activity (SiHa [21]) was “inactive” and the Activity (SiHa [22]) was “inactive”. For the same molecule, the IC50 [4] was 0.059 µM, the remaining at 1 h [23] was 105% and the Activity (SiHa [24]) was “inactive”.
In the case of O=C(O)c1cc2ccc(OCc3cccc(F)c3)cc2oc1=O, the Activity (SiHa [1]) is reported as “inactive”.
For O=C(O)c1cc2ccc(OCc3ccccc3)cc2n(Cc2ccccc2)c1=O, the EC50 (SiHa [1]) was > 30 µM, the Activity (SiHa [3]) was “inactive” and the IC50 [4] was > 30 µM.
With Cc1c(C(=O)O)c(=O)oc2cc(OCc3ccccc3)ccc12 the EC50 (SiHa [1]) was > 30 µM, the Activity (SiHa [3]) was “inactive” and the IC50 [4] was > 30 µM.
In the case of CC(=O)CC(c1ccccc1)c1c(O)c2ccccc2oc1=O (stereo unspecified) [WARFARIN], the Activity (Mus musculus [25]) is reported as “Toxic” and the Activity (Mus musculus [26]) is reported as “Toxic”.
In the case of O=C(O)c1cc2ccc(OCn3nnc4ccccc43)cc2oc1=O, the Activity (SiHa [1]) is reported as “inactive”.
With CCn1c(=O)c(C(=O)O)cc2ccc(OCc3ccccc3)cc21 the EC50 (SiHa [1]) was > 30 µM, the Activity (SiHa [3]) was “inactive” and the IC50 [4] was > 30 µM.
For Cc1c(C(=O)O)c(=O)oc2cc(O)ccc12, the EC50 (SiHa [1]) was > 30 µM, the Activity (SiHa [3]) was “inactive” and the IC50 [4] was > 30 µM.
